Reference: PMC9138090, “Study on the Neuroprotective, Radical-Scavenging and MAO-B Inhibiting Properties of New Benzimidazole Arylhydrazones as Potential Multi-Target Drugs for the Treatment of Parkinson’s Disease” (Antioxidants, 2022)
“Also recorded” adds a separate entry of the source.

Legend:
[1] = MTT cytotoxicity on SH-SY5Y cells; format: cell-based, human; conditions: human, SH-SY5Y neuroblastoma cells, MTT test, 24 h incubation; read-out: IC50, in vitro cytotoxicity on SH-SY5Y cells
Protocol: (§1) Human neuroblastoma cell line SH-SY5Y was obtained from the European Collection of Cell Cultures (ECACC, Salisbury, UK). The cells were maintained in 75 cm^2 flasks at 37 °C in a humidified atmosphere with 5% CO2 and cultured in RPMI 1640 medium, supplemented with 10% fetal bovine serum and 2 mM L-glutamine.
(§2) MTT (Sigma-Aldrich Chemie GmbH, Schnelldorf, Germany) assay is based on interaction between tetrazolium dye 3-(4,5-dimethylthiazol-2-yl)-2,5-diphenyltetrazolium bromide and succinic dehydrogenase in the living cells’ mitochondria. In this reaction, the formed purple formazan crystals indicate the presence of viable cells. SH-SY5Y cells were seeded in 96-well microplates at a density 2.5 × 10^4 cells/well and allowed to attach to the well surface at 37 °C in a humidified atmosphere with 5% CO2 (24 h). Different concentrations of compounds ([…]) were added to cells and incubated for 24 h. For each concentration, a set of at least 8 wells were used. After the treatment, the solution in each well was substituted with MTT (3-(4,5-dimethylthiazol-2-yl)-2,5-diphenyltetrazolium bromide) solution (0.5 mg/mL in culture medium). The microplates were further incubated for 3 h at 37 °C and the obtained formazan crystals were dissolved by 100 µL/well of DMSO. The absorbance was measured in a multiplate reader Synergy 2 (BioTek Instruments, Inc, Highland Park, Winooski, VT, USA) at 570 nm (690 nm for background absorbance).
(§3) An important step in the development of new pharmacologically active compounds is the establishment of their safety profile. An in vitro toxicity evaluation was carried out on the neuroblastoma cell line SH-SY5Y, which is a well-established model in neuroscience. The neuroblastoma SH-SY5Y are human derived cells with relatively homogeneous neuroblast-like structure. The cells express a dopamine-β-hydroxylase and tyrosine hydroxylase enzyme activity, specific types of human proteins and protein isoforms. The possible neurotoxic effects of the potential drug candidates were measured by cell viability assay (MTT-test). The IC50 values were used as a robust parameter for comparison. The test compounds were dissolved in DMSO and serially diluted in cell culture medium to achieve final concentrations ranging from 1 to 500 µM; the culture medium containing DMSO in the corresponding concentration was used as untreated controls. A concentration dependent effect on cell viability was observed after 24 h incubation.

[2] = system: SH-SY5Y cells; test: MTT cytotoxicity on SH-SY5Y cells; format: cell-based, human; conditions: MTT test, 24 h incubation; read-out: IC50, in vitro cytotoxicity on SH-SY5Y cells
Protocol: as §1, §2, §3

[3] = target: T1, human recombinant MAO-B (hMAO-B) enzyme (Homo sapiens, UniProt P27338); test: hMAO-B activity, Amplex UltraRed fluorometric method; format: biochemical; conditions: 1 µM
T1 construct: purchased Invitrogen, USA
T1 sequence (P27338 1-520): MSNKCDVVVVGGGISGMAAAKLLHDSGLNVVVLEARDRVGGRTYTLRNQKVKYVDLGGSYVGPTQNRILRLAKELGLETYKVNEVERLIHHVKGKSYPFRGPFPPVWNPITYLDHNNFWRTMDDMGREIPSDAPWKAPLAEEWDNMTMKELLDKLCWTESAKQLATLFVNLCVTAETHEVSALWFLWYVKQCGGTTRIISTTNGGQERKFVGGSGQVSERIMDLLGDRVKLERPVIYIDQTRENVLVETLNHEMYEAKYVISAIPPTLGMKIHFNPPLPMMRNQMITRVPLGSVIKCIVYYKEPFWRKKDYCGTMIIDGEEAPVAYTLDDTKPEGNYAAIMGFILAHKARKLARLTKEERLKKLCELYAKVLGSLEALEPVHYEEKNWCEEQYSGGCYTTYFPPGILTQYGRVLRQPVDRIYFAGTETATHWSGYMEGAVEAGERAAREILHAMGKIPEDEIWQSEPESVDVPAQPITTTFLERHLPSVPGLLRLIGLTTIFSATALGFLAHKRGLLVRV
Protocol: The effects of the test compounds on human recombinant MAO-B (hMAO-B) enzyme were studied by the Amplex UltraRed reagent (Sigma-Aldrich Chemie GmbH) fluorometric method with small modifications. The working solutions of the compounds, reagents, hMAO-B, and reaction buffers were prepared according to the producer’s instructions. The tyramine hydrochloride was used as a substrate. The reaction mixture contained a stock solution of Amplex Red (10 mM in dimethyl sulfoxide), the reaction buffer (0.05 M sodium phosphate) at pH 7.4, and the storage solution of horseradish peroxidase (10 U/mL). There were pure MAO-B working solutions in the reaction buffer and MAO-B working solution containing hydrogen peroxide as controls. The final concentration of the test compounds in the well was 1 μM. The compounds together with hMAO-B were embedded in a 96-well plate (8 wells for each compound), and then the plate was incubated for 30 min (dark, at 37 °C). Thereafter, the reaction was initiated by 50 μL Mix Solution: Amplex®Red reagent, horseradish peroxidase, and tyramine as an enzyme substrate in the reaction buffer. The fluorescence was measured every 30 min at 0, 30, 60, 90, 120, and 150 min), in dark, while shaking the reaction mixture at constant temperature of 37 °C. The fluorimetric measurements were assessed using a Synergy 2 Microplate Reader.
Monoamine oxidase B catalyzes dopamine metabolism and oxidation leading to the formation of reactive oxygen species and reactive quinones, which provoke dopamine neurotoxicity and neurodegeneration. In the next experiments, the compounds showing the best safety profile and the most promising neuroprotective activity (3d, 3e, 3h, 3i, 3m, 3n, 3p) were evaluated for their potential inhibitory activity on hMAOB. Selegiline and rasagiline as potent MAO-B inhibitors were used as standard compounds for comparison.

Structure (SMILES): O=C(CCn1c(=S)n(CCC(=O)NN=Cc2ccccc2O)c2ccccc21)NN=Cc1ccccc1O [3e, 3,3′-(2-Thioxo-1H-benzo[d]imidazole-1,3(2H)-diyl)bis(N′-(2-hydroxybenzylidene)propanehydrazide)]
- IC50 at 24 h [1]: > 200 µM
- IC50 [2]: 235 µM
- inhibitory effect on hMAOB activity (in words) [3]: statistically significant MAO-B inhibitory effects

Structure (SMILES): O=C(CCn1c(=S)n(CCC(=O)NN=Cc2cccc(O)c2O)c2ccccc21)NN=Cc1cccc(O)c1O [3h, 3,3′-(2-Thioxo-1H-benzo[d]imidazole-1,3(2H)-diyl)bis(N′-(2,3-dihydroxybenzylidene)propanehydrazide)]
- IC50 at 24 h [1]: > 250 µM
- IC50 [2]: 296 µM
- inhibitory effect on hMAOB activity (in words) [3]: statistically significant MAO-B inhibitory effects; also recorded: most potent with an hMAO-B inhibitory activity similar to selegiline and rasagiline

Structure (SMILES): O=C(CCn1c(=S)n(CCC(=O)NN=Cc2ccc(O)cc2O)c2ccccc21)NN=Cc1ccc(O)cc1O [3i, 3,3′-(2-Thioxo-1H-benzo[d]imidazole-1,3(2H)-diyl)bis(N′-(2,4-dihydroxybenzylidene)propanehydrazide)]
- IC50 at 24 h [1]: > 250 µM
- IC50 [2]: 301 µM
- inhibitory effect on hMAOB activity (in words) [3]: statistically significant MAO-B inhibitory effects

Structure (SMILES): COc1ccc(C=NNC(=O)CCn2c(=S)n(CCC(=O)NN=Cc3ccc(OC)cc3O)c3ccccc32)c(O)c1 [3m, 3,3′-(2-Thioxo-1H-benzo[d]imidazole-1,3(2H)-diyl)bis(N′-(2-hydroxy-4-methoxybenzylidene)propanehydrazide)]
- IC50 at 24 h [1]: > 200 µM
- IC50 [2]: 211 µM
- inhibitory effect on hMAOB activity (in words) [3]: statistically significant MAO-B inhibitory effects
